Results: US20110098257A1, “DERIVATIVES OF 4- OR 5-AMINOSALICYLIC ACID” (ANTIBE THERAPEUTICS INC., priority 2005, published 2011)
Counter-ions that a name gives are not always drawn.

Columns and labels:
[1] = tested on: leukocyte adherence in mesenteric post-capillary venules; test: Leukocyte adherence to the vascular endothelium in vivo (intravital microscopy, aspirin-induced); design: species or system Rats
Protocol: Leukocyte adherence was studied using intravital microscopy, as described in detail previously (Wallace et al., (1993) Am. J. Physiol. 265: 993-998, incorporated hereto by reference). Rats were anesthetized with pentobarbital sodium (60 mg/kg i.p.) and cautery incisions were made along the abdominal region. A tracheotomy was performed to facilitate breathing. The rats were placed in a supine position, and a segment of the mesentery was exteriorized through the abdominal incision. The mesentery was carefully placed over an optically clear viewing pedestal that allowed for trans-illumination of a 2-cm^2 segment of tissue. All exposed tissue was covered with saline-soaked gauze to minimize dehydration. The temperature of the pedestal was kept at 37° C. and the mesentery was superfused with warmed bicarbonate-buffered saline (pH 7.4). An intravital microscope (Nikon L25/0.35) and a ×10 eyepiece were used to observe the mesenteric microcirculation. Post-capillary venules with diameters ranging from 20 to 40 μm were selected for the study. A video camera mounted on the microscope (Panasonic™ digital 5000) projected the image onto a monitor, and the images were recorded for playback analysis using a videocassette recorder. Images of the mesenteric microcirculation were recorded 5 minutes prior to aspirin administration (baseline), at the time of aspirin administration (time 0-5) and every 15 minutes for 60 minutes. Leukocyte adherence was blindly quantified from videotaped images of the vessels made over 5-min periods as the number of leukocytes that remained stationary along the vessel wall for 30 s or more (expressed per 100 μm venule length). Groups of rats (at least 5 in each) were pretreated with Compound XXXV (130 mg/kg), Compound XXVII (100 mg/kg), mesalamine (50 mg/kg), or vehicle 60 min prior to aspirin (or vehicle) administration. These drugs were given intragastrically. In some experiments, rats were treated with glibenclamide (10 mg/kg i.p.) or vehicle 30 min prior to administration of these compounds.

[2] = after patients have taken the usual doses; Dig. Dis. Sci. 1989; 34: 573-578; cited from earlier work
[3] = tested on: visceral pain in response to colorectal distension; test: Rat model of visceral pain perception (colorectal distension, AWR score); format: in vivo, Rats (male, Wistar); conditions: for pain perception score after glibenclamide pretreatment / pain perception score: 0.8 mL colorectal distention, 100 mg/kg, FIG. 17; for pain perception score after glibenclamide pretreatment: glibenclamide 10 mg/kg i.p. 30 min before; for pain perception score / pain perception: vs vehicle-treated group; for pain perception: equimolar doses: mesalamine 50, Compound XXXV 130, ADT-OH 80, Compound XXVII 100, 4-HTB 50 mg/kg
Protocol: A rat model of visceral pain perception, a pre-clinical model of irritable bowel syndrome, was used in the following example. Rats (male, Wistar, 200-250 g, obtained from Charles River, Monza, Italy), were housed in plastic cages and maintained under controlled conditions with 12-hours light/dark cycle with lights on at 7.00 AM. Tap water and standard laboratory chow were freely available. Before experiments, rats were individually trained by spending 2-3 hours per day in a plexiglass cage for 2-3 days. It allowed them to adjust to a movement-restriction environment. Food was withheld for 12 hours before colorectal distension (CRD) recording were performed. Experiments were performed in awake rats and were conducted in a blind manner in that the observer was not aware of the identity of drug administered to each animal.
In the testing day, rats were sedated with ether inhalation and a 2 cm long latex balloon was inserted intrarectally 2 cm from the anal verge and fixed at the base of the tail. The balloon was connected via a double-barreled cannula to a pressure transducer to continuously monitoring the rectal pressure by a computer (PowerLab PC, A.D. Instruments, Milford, Mass., USA) and to a syringe for inflation/deflation of the balloon. The rats were then housed in a small cage (20×8×8 cm) on an elevated Plexiglas™ platform and allowed to wake up and adapt for 1 hour. After recovery from sedation, animals underwent the CRD procedure and behavioral responses were tested. The night before the experiments, the balloons were inflated and left overnight so the latex stretched and the balloons became compliant.
CRD of 20 seconds, performed every 5 minutes, was applied in increment of 0.4 ml starting from 0.4 ml up to 1.6 ml water. To achieve an accurate measurement of the colonic parameters and perception, the distensions were repeated twice for each intensity and data for each animal were averaged for analysis. Each animal underwent a double set of CRD. Twenty minutes after the first sequence of CRD (0.4 mL-1.6 ml water), drugs were administered intraperitoneally (i.p.) and a second set of CRD was performed. Behavioral responses during the first and the second set of CRD were assessed and compared.
Behavioral response to CRD was assessed by measuring the abdominal withdrawal reflex (AWR) using a semiquantitative score (1).
The effects of mesalamine and Compound XXXV on colonic compliance and sensitivity were determined using a total of 8 fasting rats. To investigate whether the administration of mesalamine and Compound XXXV could revert pain induced by CRD, after the first sequence of CRD, […], after which a second set of CRD was repeated.
To determine the effect of mesalamine or Compound XXXV on colonic smooth muscle, the compliance of the colo-rectum during CRD was obtained from intracolo-rectal volume and pressure and expressed as mL/mmHg.
All data are presented as the mean±SEM, with sample sizes of 4 rats/group; statistical comparison of paired data was performed by the Wilcoxon signed rank test. An associated probability (p value) of less that 5% was considered significant.
A rat model of visceral pain perception as described above was used to compare pain perception scores for both Compound XXXV and Compound XXVII with or without glibenclamide, an inhibitor of ATP-sensitive K^+ (KATP) channels.

[4] = tested on: mice having TNBS-induced colitis; test: TNBS-induced colitis in mice (disease activity score, colonic MPO activity); format: in vivo, Balb/c mice
Protocol: A standard experimental animal model of colitis induced by intracolonic administration of 2,4,6-trinitrobenzene sulfonic acid (TNBS) to mice is used in the following example. A detailed description of this model has been published (Santucci et al. (2003) Gastroenterology 124:1381-94) and is incorporated herein by reference. Briefly, 6-8 week old Balb/c mice were given TNBS intracolonically at a dose of 1.5 mg in 0.1 mL of 30% ethanol. The mice were randomized to the various treatment groups (n=6 per group). Beginning one hour later and continuing every 12 h for 5 days, the mice were treated orally with vehicle (1% carboxymethylcellulose (CMC)), 5-ASA (mesalamine) (25, 50 or 75 mg/kg) or with equimolar doses of 2-hydroxy-5-amino-benzoic acid 4-(thioxo-5H-[1,2]dithiol-3-yl)-phenyl ester hydrochloride (Compound XXXV) (130 mg/kg), or with […] (100 mg/kg), 50% (66 mg/kg) and 25% (33 mg/kg) of that dose. The mice were evaluated (blindly) on the final day of the study for the presence of diarrhea and fecal occult blood, and their body weights were measured. […] After sacrifice, a sample of the colon was excised for measurement of myeloperoxidase (MPO) activity, as a marker of granulocyte infiltration. All results were compared to those obtained with healthy mice as well.
FIGS. 3 and 4 show the Disease Activity Index and MPO activity, respectively, using the same experimental animal model of colitis as described above, in which Compound XXXV (130 mg/kg) was compared to equimolar doses of its two constituents, mesalamine (50 mg/kg) and 5-p-hydroxyphenyl-[…] (ADT-OH) (80 mg/kg), and a mixture of mesalamine (50 mg/kg) and ADT-OH (80 mg/kg). *p<0.05 versus the vehicle-treated group. Each group consisted of at least 5 rats.
FIGS. 6 and 7 show the Disease Activity Index and MPO, respectively, using the same experimental animal model of colitis as described above, in which Compound XXVII (100 mg/kg) was compared to equimolar doses of its two constituents, mesalamine (50 mg/kg) and 4-hydroxythiobenzamide (4-HTB) (50 mg/kg), mesalamine alone (50 mg/kg) and 4-HTB alone (50 mg/kg). *p<0.05 versus the vehicle-treated group. Each group consisted of at least 5 rats.
The same model was used as described above. In this example, the effects of mesalamine (50 mg/kg) were compared to those of equimolar doses of Compound XXXV. In addition to measuring the severity of colitis by measuring disease activity score and MPO activity, tissues were processed for measurement of a number of genes for inflammatory cytokines and other mediators.

[5] = tested on: PE (1 μM) precontracted rings of thoracic aorta; test: Vasorelaxant effect on PE precontracted thoracic aorta rings; design: species or system CD-1 mice; conditions: cumulative concentration-response 10 nM-3 mM, endothelium present, vs vehicle; FIG. 22
Protocol: CD-1 mice were sacrificed and thoracic aorta was rapidly dissected and cleaned from fat and connective tissue. […] Changes in isometric tension were recorded with PowerLab™ data acquisition system (Ugo Basile, Italy). […] Rings were initially stretched until a resting tension of 1.5 g was reached and allowed to equilibrate for at least 40 minutes during which tension was adjusted, when necessary, to 1.5 g and bathing solution was periodically changed.
Vehicle represents buffer but no compound. Curves to tested compounds were constructed in presence of endothelium.
Data obtained are shown in FIG. 22 and are expressed as mean±SEM. The level of statistical significance was determined by 2-way analysis of variance (ANOVA) followed by Bonferroni's test for multiple comparison, using the GraphPad™ software.

SMILES: Nc1ccc(O)c(C(=O)Oc2ccc(-c3cc(=S)ss3)cc2)c1 (as salt: hydrochloride) [Compound XXXV, 5-Amino-2-hydroxy-benzoic acid 4-(5-thioxo-5H-[1,2]dithiol-3-yl)-phenyl ester]
- melting point: 93 to 95 °C

SMILES: Nc1ccc(O)c(C(=O)O)c1 [mesalamine, 5-aminosalicylic acid]
- aspirin-induced leukocyte adherence with glibenclamide pretreatment ([1]; glibenclamide 10 mg/kg i.p. 30 min prior to the compound, compound plus aspirin, FIG. 19): no effect
- mesalamine concentration in the colonic lumen [2]: up to 5 mM
- pain perception score after glibenclamide pretreatment [3]: did not affect the pain perception
- pain perception score [3]: had no significant effect
- pain perception [3]: Only Compound XXXV and Compound XXVII significantly reduced pain perception

SMILES: COc1ccc(Cl)cc1C(=O)NCCc1ccc(S(=O)(=O)NC(=O)NC2CCCCC2)cc1 [Glibenclamide, glibenclamide, reference compound]
- leukocyte adherence, glibenclamide alone ([1]; glibenclamide 10 mg/kg i.p., no aspirin, FIG. 19): did not affect leukocyte adherence
- aspirin-induced increase in leukocyte adherence ([1]; pretreatment: Compound XXXV 130 mg/kg or mesalamine 50 mg/kg intragastrically 60 min prior to aspirin, glibenclamide 10 mg/kg i.p., FIG. 19): did not affect the magnitude of aspirin-induced leukocyte adherence

SMILES: NC(=S)c1ccc(OC(=O)c2cc(N)ccc2O)cc1 [Compound XXVII, 5-Amino-2-hydroxy-benzoic acid 4-thiocarbamoyl-phenyl ester]
- aspirin-induced leukocyte adherence, final time period ([1]; minutes 60-65, Compound XXXV 130 mg/kg, Compound XXVII 100 mg/kg, FIG. 20): suppress aspirin-induced leukocyte adherence
- aspirin-induced leukocyte adherence, final time period, with glibenclamide pretreatment ([1]; minutes 60-65, glibenclamide 10 mg/kg i.p., FIG. 20): glibenclamide pretreatment to reverse this inhibitor effect
- pain perception score after glibenclamide pretreatment [3]: reversed by pretreatment with glibenclamide
- pain perception score [3]: significantly reduced the pain perception
- pain perception [3]: significantly reduced pain perception
- Disease Activity Index ([4]; Compound XXVII 100 mg/kg vs mesalamine 50 mg/kg, 4-HTB 50 mg/kg and their mixture, FIG. 5): almost three times as effective as either mesalamine alone, 4-HTB alone or a mixture of mesalamine and 4-HTB
- MPO activity (granulocyte infiltration) ([4]; Compound XXVII 100 mg/kg, FIG. 6): significantly reduced inflammation
- melting point: 193 to 195 °C

SMILES: CC(=N)S [thioacetamide]
- vasorelaxant effect (% relaxation) [5]: significant vasorelaxant effects, which were concentration dependent

SMILES: CC(=O)Oc1ccccc1C(=O)O [Aspirin, aspirin, reference compound]
- leukocyte adherence after intragastric aspirin ([1]; vs baseline period / vehicle+vehicle group, FIG. 19): markedly increased leukocyte adherence

SMILES: NC(=S)c1ccc(O)cc1 [Compound 4-HTB, 4-hydroxythiobenzamide, reference compound]
- pain perception [3]: Only Compound XXXV and Compound XXVII significantly reduced pain perception
- vasorelaxant effect (% relaxation) [5]: significant vasorelaxant effects, which were concentration dependent

SMILES: Oc1ccc(-c2cc(=S)ss2)cc1 [ADT-OH, 5-p-hydroxyphenyl-1,2-dithione-3-thione, reference compound]
- pain perception [3]: Only Compound XXXV and Compound XXVII significantly reduced pain perception
